In ChEMBL document CHEMBL1201862, “PubChem BioAssay data set” (2004):
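Grown in 96-well plates, cells were treated for 48 hours with each compound at five concentrations. Insufficient inhibition: endpoint recorded as highest concentration tested. GI50 marks 50% less growth.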 The source made the active and inactive calls. Rule as the data show it: active = GI50 up to about 1.1 µM and inactive = higher.

What was measured:
Assay in all cases: DTP human tumour cell line panel, 48 h
786-0 = system: 786-0
A498 = system: A498
A549 = system: A549
ACHN = system: ACHN
BT-549 = system: BT-549
CAKI-1 = system: CAKI-1
CCRF-CEM = system: CCRF-CEM
COLO 205 = system: COLO 205
DU-145 = system: DU-145
EKVX = system: EKVX
HCC 2998 = system: HCC 2998
HCT-116 = system: HCT-116
HCT-15 = system: HCT-15
HL-60 = system: HL-60
HOP-62 = system: HOP-62
HOP-92 = system: HOP-92
HT-29 = system: HT-29
Hs-578T = system: Hs-578T
IGROV-1 = system: IGROV-1
K562 = system: K562
KM12 = system: KM12
LOX IMVI = system: LOX IMVI
M14 = system: M14
MCF7 = system: MCF7
MDA-MB-231 = system: MDA-MB-231
MDA-MB-435 = system: MDA-MB-435
MDA-N = system: MDA-N
MOLT-4 = system: MOLT-4
Malme-3M = system: Malme-3M
NCI-H226 = system: NCI-H226
NCI-H23 = system: NCI-H23
NCI-H460 = system: NCI-H460
NCI-H522 = system: NCI-H522
NCI/ADR-RES = system: NCI/ADR-RES
OVCAR-3 = system: OVCAR-3
OVCAR-4 = system: OVCAR-4
OVCAR-5 = system: OVCAR-5
OVCAR-8 = system: OVCAR-8
PC-3 = system: PC-3
RPMI-8226 = system: RPMI-8226
RXF 393 = system: RXF 393
SF-268 = system: SF-268
SF-295 = system: SF-295
SF-539 = system: SF-539
SK-MEL-28 = system: SK-MEL-28
SK-MEL-2 = system: SK-MEL-2
SK-MEL-5 = system: SK-MEL-5
SK-OV-3 = system: SK-OV-3
SN12C = system: SN12C
SNB-19 = system: SNB-19
SNB-75 = system: SNB-75
SR = system: SR
SW-620 = system: SW-620
T47D = system: T47D
TK-10 = system: TK-10
U-251 = system: U-251
UACC-257 = system: UACC-257
UACC-62 = system: UACC-62
UO-31 = system: UO-31

Measured: GI50

CCNC(=S)N/N=C(/C)c1cccc(/C(C)=N\NC(=S)NCC)n1
0.493 µM: HCT-15
active: A549 0.719 µM | ACHN 0.562 µM | CCRF-CEM 0.303 µM | COLO 205 1.08 µM | EKVX 1.11 µM | HCT-116 0.367 µM | HL-60 0.57 µM | HOP-62 1.11 µM | HT-29 0.315 µM | KM12 0.593 µM | LOX IMVI 0.373 µM | MCF7 0.689 µM | MOLT-4 0.365 µM | NCI-H226 0.333 µM | NCI-H460 0.31 µM | NCI/ADR-RES 0.748 µM | OVCAR-3 0.366 µM | OVCAR-5 0.873 µM | OVCAR-8 0.345 µM | PC-3 0.614 µM | RPMI-8226 0.847 µM | SF-268 0.59 µM | SF-295 0.488 µM | SK-MEL-5 0.774 µM | SR 0.184 µM | SW-620 0.486 µM | TK-10 0.771 µM | U-251 0.553 µM | UACC-62 1.09 µM | UO-31 0.968 µM
inactive: 786-0 1.5 µM | A498 7.52 µM | BT-549 10.4 µM | CAKI-1 1.23 µM | DU-145 1.35 µM | HCC 2998 3.56 µM | HOP-92 1.69 µM | Hs-578T 13.8 µM | IGROV-1 1.24 µM | K562 1.13 µM | M14 1.2 µM | MDA-MB-231 2.32 µM | MDA-MB-435 2.82 µM | MDA-N 1.23 µM | Malme-3M 2.44 µM | NCI-H23 4.06 µM | NCI-H522 1.15 µM | OVCAR-4 2.14 µM | RXF 393 3.44 µM | SF-539 1.27 µM | SK-MEL-28 2.38 µM | SK-MEL-2 3.9 µM | SK-OV-3 2.63 µM | SN12C 1.46 µM | SNB-19 5.48 µM | SNB-75 14.9 µM | T47D 2.72 µM | UACC-257 4.16 µM

Cc1c2oc3c(C)cnc(C(=O)NC4C(=O)NC(C(C)C)C(=O)N5CCCC5C(=O)N(C)CC(=O)N(C)C(C(C)C)C(=O)OC4C)c3nc-2c(C(=O)NC2C(=O)NC(C(C)C)C(=O)N3CCCC3C(=O)N(C)CC(=O)N(C)C(C(C)C)C(=O)OC2C)c(N)c1=O (stereo unspecified)
21 µM: HCT-15
inactive: 786-0 2.3 µM | A498 6.18 µM | A549 3.37 µM | ACHN 5.48 µM | BT-549 7.62 µM | CAKI-1 10.9 µM | COLO 205 1.8 µM | DU-145 4.72 µM | EKVX 15.4 µM | HCC 2998 2.67 µM | HOP-62 3.05 µM | HOP-92 2.84 µM | HT-29 1.29 µM | Hs-578T 1.88 µM | KM12 5.94 µM | M14 3.4 µM | MDA-MB-231 9.77 µM | MDA-MB-435 2.74 µM | Malme-3M 1.28 µM | NCI-H226 2.65 µM | NCI-H23 3.24 µM | NCI/ADR-RES > 61 µM | OVCAR-3 10.4 µM | OVCAR-4 10.8 µM | OVCAR-5 13.2 µM | OVCAR-8 5.57 µM | PC-3 2.67 µM | SF-295 5.45 µM | SF-539 1.42 µM | SK-MEL-28 1.67 µM | SK-OV-3 5.6 µM | SN12C 1.36 µM | SNB-75 6.41 µM | TK-10 22.9 µM | UACC-257 4.58 µM | UACC-62 1.32 µM | UO-31 14.2 µM
active: CCRF-CEM 0.121 µM | HCT-116 0.396 µM | HL-60 0.769 µM | IGROV-1 0.687 µM | K562 0.231 µM | LOX IMVI 0.348 µM | MCF7 0.805 µM | MDA-N 0.979 µM | MOLT-4 0.138 µM | NCI-H460 1.03 µM | NCI-H522 0.673 µM | RPMI-8226 0.211 µM | RXF 393 1.12 µM | SF-268 0.789 µM | SK-MEL-2 0.431 µM | SK-MEL-5 1.04 µM | SNB-19 0.682 µM | SR 0.575 µM | SW-620 0.346 µM | T47D 1.07 µM | U-251 0.931 µM

O=C(O)CN(CC(=O)O)C(C(=O)O)c1ccccc1 (stereo unspecified)
inactive: 786-0 > 100 µM | A498 > 100 µM | A549 > 100 µM | ACHN > 100 µM | BT-549 > 100 µM | CAKI-1 > 100 µM | CCRF-CEM > 100 µM | COLO 205 > 100 µM | DU-145 > 100 µM | EKVX > 100 µM | HCC 2998 > 100 µM | HCT-116 > 100 µM | HL-60 > 100 µM | HOP-62 > 100 µM | HOP-92 > 100 µM | HT-29 > 100 µM | Hs-578T > 100 µM | IGROV-1 > 100 µM | K562 > 100 µM | KM12 > 100 µM | LOX IMVI > 100 µM | M14 > 100 µM | MCF7 > 100 µM | MDA-MB-231 > 100 µM | MDA-MB-435 > 100 µM | MDA-N > 100 µM | MOLT-4 > 100 µM | Malme-3M > 100 µM | NCI-H226 > 100 µM | NCI-H23 > 100 µM | NCI-H460 > 100 µM | NCI-H522 > 100 µM | NCI/ADR-RES > 100 µM | OVCAR-3 > 100 µM | OVCAR-4 > 100 µM | OVCAR-5 > 100 µM | OVCAR-8 > 100 µM | PC-3 > 100 µM | RPMI-8226 > 100 µM | RXF 393 > 100 µM | SF-268 > 100 µM | SF-295 > 100 µM | SF-539 > 100 µM | SK-MEL-28 > 100 µM | SK-MEL-2 > 100 µM | SK-MEL-5 > 100 µM | SK-OV-3 > 100 µM | SN12C > 100 µM | SNB-19 > 100 µM | SNB-75 > 100 µM | SR > 100 µM | SW-620 > 100 µM | T47D > 100 µM | TK-10 > 100 µM | U-251 > 100 µM | UACC-257 > 100 µM | UACC-62 > 100 µM | UO-31 > 100 µM
> 100 µM: HCT-15

COc1cc(CNCc2cc(OC)c(OC)c(OC)c2)cc(OC)c1OC
inactive: 786-0 > 10 µM | A498 > 10 µM | A549 > 10 µM | ACHN > 10 µM | BT-549 > 10 µM | CAKI-1 > 10 µM | CCRF-CEM 2.37 µM | COLO 205 > 10 µM | DU-145 > 10 µM | EKVX > 10 µM | HCC 2998 > 10 µM | HCT-116 > 10 µM | HL-60 > 4.62 µM | HOP-62 > 10 µM | HOP-92 > 6.07 µM | HT-29 > 10 µM | Hs-578T > 10 µM | IGROV-1 > 10 µM | K562 > 4.95 µM | KM12 > 10 µM | LOX IMVI > 8.38 µM | M14 > 10 µM | MCF7 > 10 µM | MDA-MB-231 > 10 µM | MDA-MB-435 > 10 µM | MDA-N > 10 µM | MOLT-4 > 5.7 µM | Malme-3M > 10 µM | NCI-H226 > 10 µM | NCI-H23 > 10 µM | NCI-H460 > 10 µM | NCI-H522 > 4.88 µM | NCI/ADR-RES > 10 µM | OVCAR-3 > 10 µM | OVCAR-4 > 10 µM | OVCAR-5 > 10 µM | OVCAR-8 > 10 µM | PC-3 > 10 µM | RPMI-8226 9.73 µM | RXF 393 > 10 µM | SF-268 > 10 µM | SF-295 > 10 µM | SF-539 > 10 µM | SK-MEL-28 > 10 µM | SK-MEL-2 > 10 µM | SK-MEL-5 > 10 µM | SK-OV-3 > 10 µM | SN12C > 10 µM | SNB-19 > 10 µM | SNB-75 > 8.38 µM | SR > 5.38 µM | SW-620 > 10 µM | T47D > 10 µM | TK-10 > 10 µM | U-251 > 10 µM | UACC-257 > 10 µM | UACC-62 > 10 µM | UO-31 > 10 µM
> 10 µM: HCT-15
